Results published in patent publication US10780071B2, “Compositions, methods and/or devices for prevention and/or treatment of dry eye disorders” (Brien Holden Vision Institute Limited, priority 2012, dated 2020).
Where two headings read alike, the source gives them in different places.

Tests used:
[1] = system: lipase; assay: Lipase activity in bacterial culture supernatants (QuantiChrom Lipase Assay Kit); assay type: cell-based; settings: S. aureus 020, TSB, 37° C., 24 h
Procedure: (§1) The bacterial strains S. aureus 020 & 134, […] in TSB extraction of glycerol monolaurate ointment prior to assay of bacterial growth and lipase activity. After incubation for 24 h, bacterial growth was determined by measuring the optical density of cultures using a spectrophotometer at a wavelength of 660 nm. Lipase activity by test bacterial strains under various treatments were assessed by examining the lipase activity in bacterial culture supernatants with a QuantiChrom™ Lipase Assay Kit.

[2] = system: S. aureus 020; assay: Bacterial growth, optical density of cultures at 660 nm; assay type: cell-based; settings: Staphylococcus aureus, 020, 24 h, read-out: Inhibition of Growth
Procedure: (§2) The bacterial strains S. aureus 020 & 134, and S. epidermidis 024 & 025 were grown at 37° C. in TSB treated with 0, 6.25 or 12.5 μg/ml of glycerol monolaurate or lauric acid as well as in TSB extraction of glycerol monolaurate ointment prior to assay of bacterial growth and lipase activity. After incubation for 24 h, bacterial growth was determined by measuring the optical density of cultures using a spectrophotometer at a wavelength of 660 nm. Lipase activity by test bacterial strains under various treatments were assessed by examining the lipase activity in bacterial culture supernatants with a QuantiChrom™ Lipase Assay Kit.

[3] = system: S. aureus 134; assay: as above; assay type: cell-based; settings: Staphylococcus aureus, TSB, 37° C., 24 h
Procedure: as §2

[4] = system: S. epidermidis 025; assay: as above; assay type: cell-based; settings: read-out: Inhibition of Growth
Procedure: as §2

[5] = system: S. epidermidis 024; assay: as above; assay type: cell-based; settings: read-out: Inhibition of Growth
Procedure: as §2

[6] = system: S. aureus 020 & 134, and S. epidermidis 024 & 025; assay: Bacterial growth, summary over the test strains; assay type: cell-based; settings: concentrations of Tables 1-4; 24 h
Procedure: as §2

[7] = system: lipase; assay: Lipase activity in bacterial culture supernatants (QuantiChrom Lipase Assay Kit); assay type: cell-based; settings: S. aureus 134, TSB, 37° C., 24 h
Procedure: as §1, with “134, and S.” for “134,”

[8] = system: lipase; assay: Lipase activity in culture supernatants, summary over the test strains; assay type: cell-based, S. aureus 020 & 134, and S. epidermidis 024 & 025
Procedure: The bacterial strains S. aureus 020 & 134, […] of glycerol monolaurate ointment prior to assay of bacterial growth and lipase activity. After incubation for 24 h, bacterial growth was determined by measuring the optical density of cultures using a spectrophotometer at a wavelength of 660 nm. Lipase activity by test bacterial strains under various treatments were assessed by examining the lipase activity in bacterial culture supernatants with a QuantiChrom™ Lipase Assay Kit.

[9] = system: lipase; assay: Lipase activity in bacterial culture supernatants (QuantiChrom Lipase Assay Kit); assay type: cell-based; settings: TSB, 37° C., 24 h
Procedure: as §2

[10] = glycerol monolaurate 12.5 μg/ml
[11] = glycerol monolaurate 17.5 μg/ml
[12] = Staphylococcus epidermidis, 025, 24 h
[13] = Staphylococcus epidermidis, 024, 24 h

**Q.** How did the “Inhibition of Lipase activity” value ([1]; glycerol monolaurate 5 μg/ml) turn out when `CCCCCCCCCCCC(=O)OCC(O)CO` (stereo not shown) [Glycerol monolaurate] was run?
**A.** 16%

**Q.** What about the “Inhibition of Lipase activity” value ([1]; glycerol monolaurate 7.5 μg/ml) of the same molecule?
**A.** 29%

**Q.** And the “Inhibition of Lipase activity” value ([1]; glycerol monolaurate 10 μg/ml)?
**A.** 50%

**Q.** What about the “Inhibition of Lipase activity” value [1, 10] of the same molecule?
**A.** 63%

**Q.** What about the “Inhibition of Lipase activity” value ([1]; glycerol monolaurate 15 μg/ml) of the same molecule?
**A.** 73%

**Q.** What about the “Inhibition of Lipase activity” value [1, 11] of the same molecule?
**A.** 88%

**Q.** What about the inhibition at 5 µg/mL [2] of the same molecule?
**A.** 1%

**Q.** And the inhibition at 7.5 µg/mL [2]?
**A.** 0%

**Q.** And the inhibition at 10 µg/mL [2]?
**A.** 4%

**Q.** And the inhibition at 12.5 µg/mL [2]?
**A.** 4%

**Q.** What about the inhibition at 15 µg/mL [2] of the same molecule?
**A.** 2%

**Q.** What about the inhibition at 17.5 µg/mL [2] of the same molecule?
**A.** 0%

**Q.** And the inhibition at 10 µg/mL ([3]; glycerol monolaurate 10 μg/ml)?
**A.** 0%

**Q.** What about the inhibition at 12.5 µg/mL [3, 10] of the same molecule?
**A.** 0%

**Q.** And the inhibition at 15 µg/mL ([3]; glycerol monolaurate 15 μg/ml)?
**A.** 1%

**Q.** And the inhibition at 17.5 µg/mL [3, 11]?
**A.** 0%

**Q.** And the inhibition at 6.25 µg/mL [4, 12]?
**A.** 0%

**Q.** What about the inhibition at 12.5 µg/mL [4, 12] of the same molecule?
**A.** 0%

**Q.** What about the inhibition at 6.25 µg/mL [5, 13] of the same molecule?
**A.** 0%

**Q.** What about the inhibition at 12.5 µg/mL [5, 13] of the same molecule?
**A.** 0%

**Q.** And the “effect on growth of the bacterial strains at the concentrations used” value [6]?
**A.** do not substantially inhibit growth

**Q.** And the “Inhibition of Lipase activity” value ([7]; glycerol monolaurate 10 μg/ml)?
**A.** 25%

**Q.** And the “Inhibition of Lipase activity” value [7, 10]?
**A.** 38%

**Q.** What about the “Inhibition of Lipase activity” value ([7]; glycerol monolaurate 15 μg/ml) of the same molecule?
**A.** 49%

**Q.** And the “Inhibition of Lipase activity” value [7, 11]?
**A.** 63%

**Q.** And the “inhibits lipase activity by approximately (range over Table 1)” value ([8]; all strains and concentrations of Table 1 (5-17.5 μg/ml))?
**A.** 16-88%

**Q.** And the “Inhibition of Lipase activity” value ([9]; S. epidermidis 024, glycerol monolaurate 6.25 μg/ml)?
**A.** 46%

**Q.** What about the “Inhibition of Lipase activity” value ([9]; S. epidermidis 024, glycerol monolaurate 12.5 μg/ml) of the same molecule?
**A.** 70%

**Q.** What about the “Inhibition of Lipase activity” value ([9]; S. epidermidis 025, glycerol monolaurate 6.25 μg/ml) of the same molecule?
**A.** 48%

**Q.** What about the “Inhibition of Lipase activity” value ([9]; S. epidermidis 025, glycerol monolaurate 12.5 μg/ml) of the same molecule?
**A.** 72%

**Q.** Which inhibition at 6.25 µg/mL ([4]; Staphylococcus epidermidis, S. epidermidis 025, lauric acid 6.25 μg/ml, TSB, 37° C., 24 h) does the source give for `CCCCCCCCCCCC(=O)O` [Lauric acid] here?
**A.** 0%

**Q.** What about the inhibition at 12.5 µg/mL ([4]; Staphylococcus epidermidis, S. epidermidis 025, lauric acid 12.5 μg/ml, TSB, 37° C., 24 h) of the same molecule?
**A.** 0%

**Q.** And the inhibition at 6.25 µg/mL ([5]; Staphylococcus epidermidis, S. epidermidis 024, lauric acid 6.25 μg/ml, TSB, 37° C., 24 h)?
**A.** 0%

**Q.** What about the inhibition at 12.5 µg/mL ([5]; Staphylococcus epidermidis, S. epidermidis 024, lauric acid 12.5 μg/ml, TSB, 37° C., 24 h) of the same molecule?
**A.** 0%

**Q.** And the “effect on growth of the bacterial strains at the concentrations used” value [6]?
**A.** do not substantially inhibit growth

**Q.** What about the “inhibits lipase activity by approximately (range over Table 2)” value ([8]; S. epidermidis 024 and 025, 6.25 and 12.5 μg/ml (Table 2)) of the same molecule?
**A.** 46-72%

**Q.** And the “Inhibition of Lipase activity” value ([9]; S. epidermidis 024, lauric acid 6.25 μg/ml)?
**A.** 46%

**Q.** And the “Inhibition of Lipase activity” value ([9]; S. epidermidis 024, lauric acid 12.5 μg/ml)?
**A.** 70%

**Q.** And the “Inhibition of Lipase activity” value ([9]; S. epidermidis 025, lauric acid 6.25 μg/ml)?
**A.** 48%

**Q.** And the “Inhibition of Lipase activity” value ([9]; S. epidermidis 025, lauric acid 12.5 μg/ml)?
**A.** 72%
